# Test results reported in US10925858B2, “S-nitrosoglutathione (GSNO) and GSNO reductase inhibitors for use in therapy” (MUSC FOUNDATION FOR RESEARCH DEVELOPMENT, priority 2017, dated 2021).
# Test system: tight junction proteins (ZO-1, Occludin, Claudin-5)
# Assay: Real-time PCR, mRNA expression of tight junction proteins in brain microvessels of diabetic mice
# Assay type: in vivo
# Description: Male laca mice weighing between 28-32 g were procured from the Central Animal House, Panjab University, Chandigarh. The animals were acclimatized and were fed with standard pellet diet and water ad libitum. The experimental protocols were approved by the Institutional Ethics Committee and were conducted according to Indian National Science Academy (INSA) guidelines for the use and care of experimental animals. The animals were divided into four groups: (i) Control animals received phosphate buffered saline (PBS) throughout the study; (ii) Control+GSNO animals were administered with GSNO 100 μg/kg body weight orally, dissolved in PBS after every 24 h for 8 weeks; (iii) Diabetic animals were injected with STZ at a dose of 40 mg/kg body weight intraperitoneally for 5 days dissolved in 0.1 mol/L citrate buffer, pH 4.5 and Diabetic+GSNO mice were administered GSNO 100 μg/kg body weight orally dissolved in PBS after every 24 h for 8 weeks after the induction of diabetes. Animals were assessed weekly for development of diabetic encephalopathy in terms of memory deficits. All experimental procedures were done on mice at the end of study.
# The microvessels were isolated by the method described by Brooks et al., (2005). Brain tissue was homogenized in microisolation buffer (103 mM NaCl, 4.7 mM KCl, 2.5 mM CaCb, 1.2 mM KH2PO4, 1.2 mM MgSO4, 15 mM HEPES, 2.5 mM NaHCO3, 10 mM D-glucose, 1 mM sodium pyruvate and 10 g/L dextran (64,000 mol wt), pH 7.4) and equal amount of 26% (w/v) dextran was added. […]
# PCR Total RNA was extracted from microvessels obtained from brain tissue using TriReagent®. […] The concentration of RNA obtained was determined by 260/280 nm ratio using a Nanodrop™ Spectrophotometer (Nanodrop™ 1000, Thermo Scientific®, Waltham, USA). The integrity and overall quality of RNA was evaluated using agarose gel electrophoresis. […] The data obtained was analyzed by the LightCycler 480 Software, Version 1.5. […] Glyceraldehyde-3-phosphate dehydrogenase was used as the reference gene and the relative gene expression was determined using delta-delta Ct method as described by Pfaffl et al., (2002).
# [1] = cortex and hippocampus, diabetic mice + GSNO 100 μg/kg oral 8 weeks, vs diabetic
structure (smiles),measurement,setting,value
"N[C@@H](CCC(=O)N[C@@H](CSN=O)C(=O)NCC(=O)O)C(=O)O [GSNO, S-nitrosoglutathione]",mRNA expression of claudin-5,GSNO treated diabetic animals,no significant change
same,mRNA expression of ZO-1,[1],2 fold
same,mRNA expression of occludin,[1],2 fold
